# Reference: US20050208496A1, “Methods of testing for bronchial asthma or chronic obstructive pulmonary disease” (Genox Research, Inc., priority 2002, published 2005)
# System: mouse counterpart genes
# Assay: Mouse GeneChip (MG-U74A to MG-U74C) analysis of lung and trachea of the OVA antigen-exposed bronchial hypersensitivity model, S-Sal group versus S-OVA group
# Assay type: in vivo
# Conditions: S-Sal vs S-OVA group
substance,measurement,setting,value
"ovalbumin [OVA antigen, ovalbumin antigen used for sensitization and inhalation to induce bronchial hypersensitivity in mice]","Fold Change, myxovirus (influenza virus) resistance 1 (mouse Probe ID 98417_at)","1st, P/A: A",1.1
same,"Fold Change, myxovirus (influenza virus) resistance 2 (mouse Probe ID 102699_at)","1st, P/A: A",1.2
same,"Fold Change, myxovirus (influenza virus) resistance 1 (mouse Probe ID 98417_at)","2nd, P/A: A",2.2
same,"Fold Change, myxovirus (influenza virus) resistance 2 (mouse Probe ID 102699_at)","2nd, P/A: P",0.909
same,"Fold Change, myxovirus (influenza virus) resistance 1 (mouse Probe ID 98417_at)","3rd, P/A: A",3
same,"Fold Change, myxovirus (influenza virus) resistance 2 (mouse Probe ID 102699_at)","3rd, P/A: A",1.3
